Assays:
Assay type in all cases: in vivo
Details in all cases: beagle dogs, nasal spray, result in words
[1] = Experimental Example 2: pharmacokinetic experiment, nalmefene in plasma by LC-MS/MS
Source text: Beagle dogs (body weight of 12 kg-15 kg, supplier: Suzhou Xishan Zhongke Experimental Animal Co., Ltd., license number: SCXK(Su)2018-0001)
• EDTA-K2 anticoagulant tube: brand Kangweishi (KWS) • Liquid chromatograph (Shimadzu, LC-30AD), mass spectrometer (SCIEX Triple Quad 4500) • LC-MS/MS detection conditions: • Instrument: UPLC-MS/MS (AB API 4500) • MS conditions: Electrospray ionization (ESI) source, positive ion detection […]
(§1) Experimental method of nasal administration for Example 1: Four beagle dogs were administered with 1 dose of a nasal spray preparation of nalmefene hydrochloride by nasal spray respectively, and 2 mL of blood was collected from the forelimb vein before administration and at 2 min, 5 min, 10 min, 15 min, 30 min, 45 min, 1 h, 2 h, 4 h and 6 h after administration. […] The content of nalmefene in the plasma was detected by LC-MS/MS. […]
Experimental method of intramuscular injection for Comparative Example 2: Four beagle dogs were administered 1 dose of an injection of nalmefene hydrochloride (1.5 ml: 1.5 mg) intramuscularly respectively, and 2 mL of blood was collected from the forelimb vein before administration and at 2 min, 5 min, 10 min, 15 min, 30 min, 45 min, 1 h, 2 h, 4 h and 6 h after administration. […] The content of nalmefene in the plasma was detected by LC-MS/MS.

[2] = Experimental Example 3: pharmacokinetic experiment, nalmefene in plasma by LC-MS/MS
Procedure: Beagle dogs (body weight of 8 kg-10 kg, supplier: Chengdu Dossy Experimental Animal Co., Ltd., license number: SCXK(1)2019-031)
(§2) • EDTA-K2 anticoagulant tube: brand Kangweishi (KWS) • Liquid chromatograph (Shimadzu, LC-30AD), mass spectrometer (SCIEX Triple Quad 4500) • LC-MS/MS detection conditions: • Instrument: UPLC-MS/MS (AB API 4500) • MS conditions: Electrospray ionization (ESI) source, positive ion detection
(§3) HPLC conditions: mobile phase A: 90% water+10% acetonitrile+0.1% formic acid+2 mM ammonium acetate; mobile phase B: 90% acetonitrile+10% water+0.1% formic acid+2 mM ammonium acetate; chromatographic column: Waters ACQUITY UPLC BEH C18 (2.1×50 mm, 1.7 μm); flow rate: 0.50 mL/min; chromatographic column temperature: 40° C.
as §1, with “3:” for “1:”, “administration. The blood sample was placed in an EDTA-K2 anticoagulant tube, centrifuged at 4500 r/min for 10 min, and 50 μL of plasma was separated into a centrifuge tube.” for “administration.”

[3] = Experimental Example 4: pharmacokinetic experiment, nalmefene in plasma by LC-MS/MS
Source text: Beagle dogs (body weight of 8 kg-10 kg, supplier: Suzhou Xishan Zhongke Experimental Animal Co., Ltd. and Chengdu Dossy Experimental Animal Co., Ltd., license numbers: SCXK(Su)2018-0001 and SCXK(1)2019-031)
as §2, §3
as §1, with “9:” for “1:”

## CCCCCCCCCCCCOP(=O)([O-])OCC[N+](C)(C)C [dodecylphosphocholine, Dodecylphosphocholine]
[1]
  absorption of nalmefene hydrochloride in the nasal cavity, compared with not using dodecylphosphocholine: significantly accelerate
[2]
  effect to accelerate the absorption of nalmefene hydrochloride in the nasal cavity compared with n-dodecyl-β-D-maltoside: superior
[3]
  effect to accelerate the absorption of nalmefene hydrochloride in the nasal cavity compared with n-dodecyl-β-D-maltoside: superior

— patent US20260048072A1, “PHARMACEUTICAL PREPARATION FOR INTRANASAL ADMINISTRATION AND PREPARATION METHOD THEREFOR” (CHENGDU EASTON BIOPHARMACEUTICALS CO., LTD., priority 2023, published 2026)
